Reference: patent US9315458B2, “Nitrogen-containing heterocyclic compound” (Takeda Pharmaceutical Company Limited, priority 2014, dated 2016)
pEC50: −log10 of the molar value.

How the values were obtained:
[1] = molecular target: T1, human M1 receptor (hCHRM1) (Homo sapiens, UniProt P11229); test: Measurement of M1 receptor positive allosteric modulator (M1PAM) activity, calcium fluorescence (FLIPRtetra) with acetylcholine at EC20; assay type: cell-based; conditions: for activity (%) at 10 μM: 10 μM test compound, 100% = acetylcholine 1 μM, 0% = DMSO, acetylcholine at EC20; for pEC50: inflection point of concentration-dependent curve, CHO-K1 cells expressing hCHRM1, acetylcholine at EC20 (final 0.6-0.8 nM), read-out: IP value
T1 construct: expressed in transfected cells
T1 sequence (P11229 1-460): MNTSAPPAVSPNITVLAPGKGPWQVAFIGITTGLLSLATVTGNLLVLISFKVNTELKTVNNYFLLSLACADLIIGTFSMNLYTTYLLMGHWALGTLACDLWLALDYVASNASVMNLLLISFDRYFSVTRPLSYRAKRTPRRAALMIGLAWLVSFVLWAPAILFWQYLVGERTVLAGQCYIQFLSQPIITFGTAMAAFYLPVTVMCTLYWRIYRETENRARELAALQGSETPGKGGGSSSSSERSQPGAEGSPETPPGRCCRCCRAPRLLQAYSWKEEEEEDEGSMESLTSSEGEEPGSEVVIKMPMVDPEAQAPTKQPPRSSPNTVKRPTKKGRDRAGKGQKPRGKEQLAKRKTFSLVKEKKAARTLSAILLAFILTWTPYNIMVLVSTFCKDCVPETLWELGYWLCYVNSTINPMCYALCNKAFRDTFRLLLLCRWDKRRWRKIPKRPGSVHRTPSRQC
Outline: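 CHO-K1 cells stably expressing hCHRM1, Fluo-4 AM loaded; compound added with acetylcholine at EC20 (final 0.6-0.8 nM), fluorescence read 1 min. Activity normalised to 1 μM acetylcholine (100%) and DMSO (0%); IP values taken as inflection point of the concentration-response curve.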

[2] = test system: IP1 production in hippocampi; test: Measurement of myo-inositol 1 phosphate (IP1) in hippocampus after oral administration; assay type: in vivo, male Long-Evans rats; conditions: 10 mg/kg oral, rat hippocampus, IP1/protein ratio, lithium chloride s.c.
From the text: Animals used were male Long-Evans rats. They were used after acclimation for at least 1 week. Test compounds were suspended in 0.5% aqueous methylcellulose solution, and the suspension was orally administered to the rats. At a certain period of time after the oral administration, the solution prepared by dissolving lithium chloride in saline was subcutaneously administered into the rats. At a certain period of time after the subcutaneously administration, their bilateral hippocampi were isolated from the rats, and the wet weight thereof was measured. The hippocampi were homogenized with HEPES buffer, followed by centrifugation. The IP1 and protein concentrations in the supernatant were measured by IP-One HTRF assay kit (Cisbio Bioassays) and BCA protein assay kit (Thermo Scientific), respectively. The level of the IP1 production was expressed as the ratio of the concentration of IP1 to that of protein. The increase rate of the IP1 production was shown as a relative value when Vehicle administration group as 100%.

[3] = test system: Scopolamine-induced memory deficits models; test: Novel object recognition test; assay type: in vivo, male Long-Evans rats; conditions: scopolamine 0.1 mg/kg s.c., mean±standard error
Protocol: Novel object recognition test is comprised of two trials called the acquisition and the retention trials. Scopolamine-induced memory deficits models were used for the test, and animals used were male Long-Evans rats (7-week-old). On the day before the test, for acclimation, the rats were allowed to freely move about the test box (40×40×50 cm) for 10 minutes. On the test day, the rats were acclimated to the test room for about 1 hr prior to the test. The test compounds were orally administered to the rats in a single dose 2 hr before the acquisition trial. For induction of learning and memory deficits, scopolamine (0.1 mg/kg) was subcutaneously administered into the rats 30 min before the acquisition trial. For the acquisition trial, two identical objects (A1, A2) were placed in the test box. The rats were put in the test box for 3 min, and the duration exploring each object was measured. The retention trial was performed 4 hr after the acquisition trial. For the retention trial, the familiar object (A3) used for the acquisition trial and the novel object (B) different shape from A3 were placed in the test box. The rats were put in the test box for 3 min. The duration exploring each object in the acquisition trial and the retention trial, and the exploration rate (%) of novel object was calculated. The exploration rate (%) of novel object was expressed as (the duration exploring the novel object)/[(the duration exploring the novel object)+(the duration exploring the familiar object)]×100(%) at mean±standard error.

| SMILES | activity (%) at 10 μM [1] | pEC50 [1] | increase rate at 10 mg/kg (% of Vehicle) [2] | exploration rate (%) of novel object ([3]; 3 mg/kg oral 2 hr before acquisition trial, control 63.35±1.59%, solvent-scopolamine 52.08±2.47%) | exploration rate (%) of novel object ([3]; 10 mg/kg oral 2 hr before acquisition trial, control 62.37±3.24%, solvent-scopolamine 48.39±2.01%) | exploration rate (%) of novel object ([3]; 3 mg/kg oral 2 hr before acquisition trial, control 66.4±2.3%, solvent-scopolamine 50.4±2.4%) |
| --- | --- | --- | --- | --- | --- | --- |
| Cc1ccc(Cc2cc3c(c(C)c2C)CN([C@H]2CCCC[C@@H]2O)C3=O)cn1 [Example 25, 2-((1S,2S)-2-hydroxycyclohexyl)-4,5-dimethyl-6-((6-methylpyridin-3-yl)methyl)isoindolin-1-one] | 90% | 8.00 | 32 % of Vehicle | – | 57.55±5.03% | – |
| Cc1c(Cc2ccc(C#N)cc2F)cc2c(c1C)CN([C@H]1COCC[C@@H]1O)C2=O [Example 124, 3-fluoro-4-({2-[(3S,4S)-4-hydroxytetrahydro-2H-pyran-3-yl]-6,7-dimethyl-3-oxo-2,3-dihydro-1H-isoindol-5-yl}methyl)benzonitrile] | 86% | 7.80 | – | – | – | – |
| CCc1ccc(Cc2cc3c(c(C)c2C)CN([C@H]2CCCC[C@@H]2O)C3=O)cn1 [Example 149, 6-((6-ethylpyridin-3-yl)methyl)-2-((1S,2S)-2-hydroxycyclohexyl)-4,5-dimethylisoindolin-1-one] | 99% | 7.80 | – | – | – | – |
| Cc1c(Cc2ccc(-n3cccn3)cc2)cc2c(c1Cl)CN([C@H]1CCC[C@@H]1O)C2=O [Example 131, 4-chloro-2-((1S,2S)-2-hydroxycyclopentyl)-5-methyl-6-(4-(1H-pyrazol-1-yl)benzyl)isoindolin-1-one] | 100% | 7.92 | – | – | – | – |
| CCc1cc2c(cc1Cc1ccc(-c3cn(C)nn3)cc1)C(=O)N(CC(C)(C)O)C2 [Example 118, 5-ethyl-2-(2-hydroxy-2-methylpropyl)-6-(4-(1-methyl-1H-1,2,3-triazol-4-yl)benzyl)isoindolin-1-one] | 106% | 7.60 | – | – | – | – |

Now from value to compound, other results behind:

| activity (%) at 10 μM [1] | pEC50 [1] | SMILES | increase rate at 10 mg/kg (% of Vehicle) [2] | exploration rate (%) of novel object ([3]; 3 mg/kg oral 2 hr before acquisition trial, control 63.35±1.59%, solvent-scopolamine 52.08±2.47%) | exploration rate (%) of novel object ([3]; 10 mg/kg oral 2 hr before acquisition trial, control 62.37±3.24%, solvent-scopolamine 48.39±2.01%) | exploration rate (%) of novel object ([3]; 3 mg/kg oral 2 hr before acquisition trial, control 66.4±2.3%, solvent-scopolamine 50.4±2.4%) |
| --- | --- | --- | --- | --- | --- | --- |
| 88% | 8.00 | COc1ccc(Cc2cc3c(c(C)c2C)CN([C@H]2COCC[C@@H]2O)C3=O)cc1 [Example 18, 2-[(3S,4S)-4-hydroxytetrahydro-2H-pyran-3-yl]-6-(4-methoxybenzyl)-4,5-dimethyl-2,3-dihydro-1H-isoindol-1-one] | 40 % of Vehicle | 59.11±3.87% | – | – |
| 109% | 8.26 | Cc1c(Cc2ccc(-n3cccn3)cc2)cc2c(c1F)CN([C@H]1COCC[C@@H]1O)C2=O [Example 20, 4-fluoro-2-[(3S,4S)-4-hydroxytetrahydro-2H-pyran-3-yl]-5-methyl-6-[4-(1H-pyrazol-1-yl)benzyl]-2,3-dihydro-1H-isoindol-1-one] | 108 % of Vehicle | – | – | 61.2±3.1% |
| 82% | 8.82 | Cc1c(Cc2ccc(C(N)=O)cc2F)cc2c(c1C)CN([C@H]1COCC[C@@H]1O)C2=O (racemic) [Example 113, rac-3-fluoro-4-((2-(trans-4-hydroxytetrahydro-2H-pyran-3-yl)-6,7-dimethyl-3-oxo-2,3-dihydro-1H-isoindol-5-yl)methyl)benzamide] | – | – | – | – |
